≈ marks a conversion by molar mass, not a printed value. Like-named read-outs stand apart in the source and are kept apart here.
Experiments:
[1] = molecular target: T1, human TLR4 (Homo sapiens, UniProt O00206+Q9Y6Y9); experiment: Human TLR4 NFκB SEAP reporter gene assay in hTLR4-transfected HEK293 cells; assay type: cell-based; conditions: for EC50: NFκB SEAP reporter, hTLR4-transfected HEK293 cells, 20 h, read-out: Human TLR4 pEC50 (converted)
T1 construct: expressed in transfected cells; host or cells: HEK293 with stably integrated pNiFty2-SEAP reporter
Description: (§1) HEK293 cells stably transfected with pNiFty2-SEAP reporter plasmid were transiently transfected with either human or mouse TLR4 (pUNO expression vector), in combination with either human or mouse CD14/MD2 (pDUO expression vector). Transient transfectants were seeded in Dulbecco’s Modified Eagle Medium, FCS 10% (v/v), 2 mM l glutamine and non-essential amino acids. Cells were seeded in tissue culture treated clear flat bottom polystyrene 96 well plates (Costar, 3598) at 1e4 cells/well. Concentration-response curves were generated by addition of test compounds and incubation for 20 h at 37°C in an atmosphere of 5% CO2. LPS (E. coli 0111:B4, Ultra-pure, Invivogen) or PHAD (Avanti Polar Lipids) was used as a positive control. The SEAP released was quantified using p nitrophenyl phosphate as a substrate, and the absorbance at 405 nm was measured at 30 second intervals over several minutes using a microplate reader. Some data are recorded as the pEC50, the negative log of the EC50 value. Other data generated from these reporter cell lines were converted to AUC (area under the curve) values by interpolation of fitted cubic spline curve between OD value and log concentration levels. The calculation is performed using MESS package in statistical software R (www.r-project.org/).

[2] = Intrinsic clearance in presence of rat hepatocytes; assay type: in vitro ADME; conditions: read-out: Clint rh (intrinsic clearance, rat hepatocytes)
From the text: (§2) Fig 2 Optimization stages of Ugi products as TLR4 agonists. *Human TLR-4 NFκB SEAP reporter assays; protocol as described in Methods. Data are reported as pEC50, or negative log of the EC50 values. **Clint rh / hm represents intrinsic clearance in presence of rat hepatocytes (μL/min/10^6 cells) and human microsomes (μL/min/mg protein). […] Thus a drug molecule with LogD >4 might be considered to be very lipophilic and therefore more likely to suffer from rapid metabolic turnover, poor solubility and receptor promiscuity; whereas a LogD range of 1–3 is more likely to be associated with optimal physicochemical and drug-like properties. ^††Solubility was measured by dissolution of solid samples in buffer at pH 7.4.

[3] = Intrinsic clearance in presence of human microsomes; assay type: in vitro ADME; conditions: read-out: Clint hm (intrinsic clearance, human microsomes)
From the text: as §2

[4] = LogD, octanol/water distribution coefficient; assay type: physicochemical; conditions: pH 7.4; octanol/water distribution coefficient at pH7.4
From the text: as §2

[5] = Solubility by dissolution of solid samples in buffer; assay type: physicochemical; conditions: aqueous buffer, thermodynamic from solid; solid samples in buffer at pH 7.4
From the text: as §2

[6] = system: cytochrome P450 enzymes; experiment: Inhibition of cytochrome P450 enzymes (unpublished data); assay type: in vitro ADME; conditions: compared with earlier-stage, more lipophilic Ugi compounds
[7] = molecular target: T2, human TLR4/MD2 (Homo sapiens, UniProt O00206+Q9Y6Y9); experiment: hTLR4/MD2-HEK293 transfectant SEAP (QUANTI-Blue) dose response, AUC; assay type: cell-based; conditions: 1 μg/ml to 4 ng/ml, 24 h, SEAP OD 650 nm vs log concentration
T2 construct: host or cells: HEK293
Description: as §1, with “Cells” for “HEK293 cells stably transfected with pNiFty2-SEAP reporter plasmid were transiently transfected with either human or mouse TLR4 (pUNO expression vector), in combination with either human or mouse CD14/MD2 (pDUO expression vector). Transient transfectants were seeded in Dulbecco’s Modified Eagle Medium, FCS 10% (v/v), 2 mM l glutamine and non-essential amino acids. Cells”
(§3) Fig 4 Ugi compounds preferentially activate TLR4-HEK transfectants expressing human MD2. A-B) HEK293 cells transfected with human TLR4/MD2 or mouse TLR4/MD2 (InVivogen) were stimulated with TLR4 agonists including MPL, PHAD, and Ugi compounds at 1 μg/ml to 4 ng/ml and with LPS at 25 ng/ml to 64 pg/ml for 24 h. SNs were analyzed for SEAP content by the QUANTI-Blue assay (InVivogen) and analysis at 650 nm by spectrophotometer. AUC (area under the curve) values were calculated as in Methods. No AUC value was calculated for LPS since it was utilized with a different dose range. C) HEK transfectants with cis- or trans-species expression of TLR4, MD2, and CD14 were stimulated with Ugi compounds in a dose response range of 9 μM to 1 nM or with LPS (boxes) at 75 ng/ml to 5 pg/ml for 48 h. Data was obtained as Vmax calculated over the initial linear portion of the kinetic absorbance measurements. The AUC (area under the curve) value for the dose response curve of Vmax vs log10 (molar units) was calculated for each compound using Trapezoidal rule. TEXT PRINTED IN THE PICTURE: (A) MPL: hTLR4-HEK AUC: 0.55 | (A) AZ617: hTLR4-HEK AUC: 5.90 | (A) AZ618: hTLR4-HEK AUC: 6.56 | (A) AZ839: hTLR4-HEK AUC: 6.00 | (A) AZ161: hTLR4-HEK AUC: 5.54 | (A) AZ902: hTLR4-HEK AUC: 7.04 | (A) GLA: hTLR4-HEK AUC: 3.75 | (B) MPL: mTLR4-HEK AUC: 13.27 | (B) AZ617: mTLR4-HEK AUC: 0.89 | (B) AZ618: mTLR4-HEK AUC: 1.03 | (B) AZ839: mTLR4-HEK AUC: 0.93 | (B) AZ161: mTLR4-HEK AUC: 0.99 | (B) AZ902: mTLR4-HEK AUC: 1.55 | (B) GLA: mTLR4-HEK AUC: 14.24

[8] = molecular target: T3, mouse TLR4/MD2 (Mus musculus, UniProt Q9JHF9+Q9QUK6); experiment: mTLR4/MD2-HEK293 transfectant SEAP (QUANTI-Blue) dose response, AUC; assay type: cell-based; conditions: 1 μg/ml to 4 ng/ml, 24 h, SEAP OD 650 nm vs log concentration
T3 construct: host or cells: HEK293
T3 sequence (Q9QUK6 26-835): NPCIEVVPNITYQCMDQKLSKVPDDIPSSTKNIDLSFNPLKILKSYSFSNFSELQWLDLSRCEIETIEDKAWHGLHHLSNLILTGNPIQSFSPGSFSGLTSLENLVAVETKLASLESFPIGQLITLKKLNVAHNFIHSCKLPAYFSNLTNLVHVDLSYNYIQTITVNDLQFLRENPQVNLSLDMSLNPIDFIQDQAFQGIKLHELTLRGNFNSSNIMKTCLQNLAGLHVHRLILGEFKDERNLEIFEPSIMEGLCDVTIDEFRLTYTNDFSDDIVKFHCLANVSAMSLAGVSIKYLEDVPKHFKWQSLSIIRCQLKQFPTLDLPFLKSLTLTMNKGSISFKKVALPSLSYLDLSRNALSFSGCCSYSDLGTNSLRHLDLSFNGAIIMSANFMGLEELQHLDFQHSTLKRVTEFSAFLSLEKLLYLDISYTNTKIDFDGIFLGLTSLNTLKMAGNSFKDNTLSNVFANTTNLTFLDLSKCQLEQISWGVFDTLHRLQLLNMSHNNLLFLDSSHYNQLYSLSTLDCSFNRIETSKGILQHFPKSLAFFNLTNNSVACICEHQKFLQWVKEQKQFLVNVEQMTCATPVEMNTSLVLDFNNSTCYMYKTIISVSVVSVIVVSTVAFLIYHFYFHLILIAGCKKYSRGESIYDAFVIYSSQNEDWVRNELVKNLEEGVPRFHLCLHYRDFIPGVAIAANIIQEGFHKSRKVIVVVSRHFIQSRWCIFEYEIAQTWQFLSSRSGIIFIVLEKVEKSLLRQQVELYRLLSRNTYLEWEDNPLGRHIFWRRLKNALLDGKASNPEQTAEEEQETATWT
T3 sequence (Q9JHF9 19-160): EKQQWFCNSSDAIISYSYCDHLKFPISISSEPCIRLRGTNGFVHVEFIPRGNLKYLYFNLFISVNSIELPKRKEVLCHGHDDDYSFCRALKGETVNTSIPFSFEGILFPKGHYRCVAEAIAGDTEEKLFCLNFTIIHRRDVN
Description: as §1, with “Cells” for “HEK293 cells stably transfected with pNiFty2-SEAP reporter plasmid were transiently transfected with either human or mouse TLR4 (pUNO expression vector), in combination with either human or mouse CD14/MD2 (pDUO expression vector). Transient transfectants were seeded in Dulbecco’s Modified Eagle Medium, FCS 10% (v/v), 2 mM l glutamine and non-essential amino acids. Cells”
as §3

[9] = system: C57BL/6 w.t. BMDCs; experiment: Cytokine induction in BMDCs of w.t. C57BL/6 mice; assay type: cell-based, mouse; conditions: 24 h, 1 μg/ml TLR4 agonists, 2 μM R848
From the text: (§4) Femur/tibia bones from w.t. C57BL/6, TLR4/MD2 KO, and hTLR4/MD2 KIKO mice were soaked in 10% FBS-RPMI. Muscle and fat tissue was stripped off from the bones with a scalpel, then, bone pairs from individual mice were transferred to 100 mm petri dishes. Femur and tibia bones were separated and the ends cut with dissecting scissors so that bone marrow cells (BMCs) could be removed by flushing the interior of the bones using a 21 G needle and warm 10% FBS-RPMI. BMCs were passed through a 70 μm strainer, followed by RBC lysis. BMCs were cultured in a 70 mm flask for 24 h in the presence of 10 ng/ml (200 unit/ml) of mGM-CSF. Non-adherent cells were collected, washed, and seeded in a 175 cm flask in the presence of 20 ng/ml of mGM-CSF. Every two days, the cells were fed with fresh media and 20 ng/ml mGM-CSF. On day 9, cells were harvested, washed, and stained for CD11c/CD11b expression to determine BMDC density. BMDCs were cultured at 50,000 cells/well for 24 h with 1 μg/ml MPL, LPS, Ugi compounds, or 2 μM R848 (InVivogen).
(§5) Fig 10 Ugi compounds activate mouse BMDCs that express human TLR4/MD2. Bone marrow cells were isolated from femur/tibia bones of w.t. […] BMDCs were harvested at day 9, washed, counted, and stimulated in vitro for 24 h with 1 μg/ml TLR4 agonists and 2 μM R848. SNs were analyzed via mouse MILLIPLEX kits. Data are expressed as the means of 2 mice and are representative of 2 studies.

[10] = system: TLR4/MD2 KO BMDCs; experiment: Cytokine induction in BMDCs of mTLR4/MD2 knockout mice; assay type: cell-based, mouse; conditions: 24 h, 1 μg/ml TLR4 agonists, 2 μM R848
From the text: as §4, §5

T1 sequence (O00206 24-839): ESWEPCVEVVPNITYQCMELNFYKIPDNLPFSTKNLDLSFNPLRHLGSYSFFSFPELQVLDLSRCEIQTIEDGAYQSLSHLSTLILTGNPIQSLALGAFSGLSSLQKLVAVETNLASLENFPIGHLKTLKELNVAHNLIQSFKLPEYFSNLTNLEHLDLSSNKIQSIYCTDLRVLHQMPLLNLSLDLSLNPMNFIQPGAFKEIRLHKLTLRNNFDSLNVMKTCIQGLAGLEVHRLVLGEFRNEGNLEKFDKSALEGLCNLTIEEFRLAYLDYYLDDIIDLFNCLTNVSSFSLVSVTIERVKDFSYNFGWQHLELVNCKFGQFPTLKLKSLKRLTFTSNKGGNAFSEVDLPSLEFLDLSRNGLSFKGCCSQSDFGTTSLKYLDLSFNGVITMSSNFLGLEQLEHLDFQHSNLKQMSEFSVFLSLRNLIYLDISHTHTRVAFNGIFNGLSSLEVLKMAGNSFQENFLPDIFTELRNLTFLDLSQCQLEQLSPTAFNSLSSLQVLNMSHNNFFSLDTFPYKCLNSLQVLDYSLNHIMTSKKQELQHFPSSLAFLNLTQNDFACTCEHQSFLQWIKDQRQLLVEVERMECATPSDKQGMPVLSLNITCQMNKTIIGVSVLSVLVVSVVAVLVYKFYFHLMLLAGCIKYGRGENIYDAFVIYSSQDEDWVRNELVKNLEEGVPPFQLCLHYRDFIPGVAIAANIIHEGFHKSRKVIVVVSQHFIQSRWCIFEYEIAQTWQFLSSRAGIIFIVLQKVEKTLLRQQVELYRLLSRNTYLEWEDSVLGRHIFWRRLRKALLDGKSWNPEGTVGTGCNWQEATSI
T1 sequence (Q9Y6Y9 19-160): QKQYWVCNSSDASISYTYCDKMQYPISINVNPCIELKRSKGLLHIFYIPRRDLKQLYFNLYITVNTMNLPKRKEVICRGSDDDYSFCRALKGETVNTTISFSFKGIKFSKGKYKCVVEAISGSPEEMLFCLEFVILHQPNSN
T2 sequence (O00206 24-839): as the sequence (O00206 24-839) above
T2 sequence (Q9Y6Y9 19-160): as the sequence (Q9Y6Y9 19-160) above

SMILES | EC50 [1] | logD [4] | other results
COc1ccc(N(C(=O)c2[nH]c(-c3ccccc3)cc2C)C(C(=O)NC2CCCC2)c2ccncc2)cc1 (stereo not shown) [AZ126, N-(2-(cyclopentylamino)-2-oxo-1-(pyridin-4-yl)ethyl)-N-(4-methoxyphenyl)-3-methyl-5-phenyl-1H-pyrrole-2-carboxamide] | 2.51 µM | > 4.5 | hepatocyte CLint ([2]; rat): 28 µL/min/1e6 cells; microsomal CLint ([3]; human): 56 µL/min/mg; solubility [5]: 0.1 µM (≈ 0.0509 µg/mL)
C#Cc1ccc(C(C(=O)NC2CCCC2)N(C(=O)c2ccc(-c3ccccc3)[nH]2)c2ccc(OC)cc2)cc1 (stereo not shown) [AZ462] | 1 µM | > 4.5 | –
C#Cc1ccc(C(C(=O)NC2CCCC2)N(C(=O)c2cc(-c3ccccc3)n(-c3ccccc3)n2)c2ccc(OC)cc2)cc1 (stereo not shown) [AZ606] | – | > 4.5 | increase in potency in the hTLR4-HEK assay ([1]; relative to AZ126): 10 fold; hepatocyte CLint [2]: 36 µL/min/1e6 cells; microsomal CLint [3]: 39 µL/min/mg; solubility [5]: 2.2 µM (≈ 1.31 µg/mL); inhibition of one or more cytochrome P450 enzymes [6]: greatly reduced
COc1ccc(N(C(=O)c2cc(-c3ccccc3)n(-c3ccccc3)n2)C(C(=O)NC2CCCC2)c2ccc(CC(=O)O)cc2)cc1 (stereo not shown) [AZ635] | 0.1 µM | 2.74 | –
C#Cc1ccc(C(C(=O)N[C@@H](C(=O)O)C(C)C)N(C(=O)c2cc(-c3ccccc3)n(-c3ccccc3)n2)c2ccc(OC)cc2)cc1 (stereo partly shown) [AZ792] | 2 µM | – | –
COc1ccc(N(C(=O)c2cc(-c3ccccc3)n(-c3ccccc3)n2)C(C(=O)NC2CCCC2)c2ccncc2)cc1 (stereo not shown) [AZ842] | 0.398 µM | > 4.5 | –
CCCCCCCCCCCCCC(=O)O[C@H](CCCCCCCCCCC)CC(=O)O[C@@H]1[C@@H](NC(=O)C[C@H](CCCCCCCCCCC)OC(=O)CCCCCCCCCCCCC)[C@H](OC[C@H]2O[C@H](O)[C@H](NC(=O)C[C@H](O)CCCCCCCCCCC)[C@@H](OC(=O)C[C@H](O)CCCCCCCCCCC)[C@@H]2O)O[C@H](CO)[C@H]1OP(=O)(O)O [GLA, glucopyranosyl lipid A, reference compound] | – | – | hTLR4-HEK AUC [7]: 3.75; mTLR4-HEK AUC [8]: 14.24
CCOCc1nc2c(N)nc3ccccc3c2n1CC(C)(C)O [R848] | – | – | cytokine response of C57BL/6 w.t. BMDCs [9]: strong response; cytokine response of mTLR4/MD2 knockout BMDCs [10]: retained

The next lines start with results.

EC50 [1] | logD [4] | SMILES | other results
0.158 µM | > 4.5 | CC(C)c1ccc(N(C(=O)c2cc(-c3ccccc3)n(-c3ccccc3)n2)C(C(=O)NC2CCCC2)c2ccc(CC(=O)NO)cc2)cc1 (stereo not shown) [AZ226] | –
0.00158 µM | – | CC(C)c1ccc(N(C(=O)c2cc(-c3ccccc3)n(-c3ccccc3)n2)C(C(=O)NC2CCCC2)c2ccc(/C=C/C(=O)O)cc2)cc1 (stereo not shown) [AZ368, (E)-3-(4-(2-(cyclopentylamino)-1-(N-(4-isopropylphenyl)-1,5-diphenyl-1H-pyrazole-3-carboxamido)-2-oxoethyl)phenyl)acrylic acid] | –
0.0251 µM | 3.62 | Cc1cccc(CN(C(=O)c2cc(-c3ccccc3)n(-c3ccccc3)n2)C(C(=O)NC2CCCC2)c2ccc(CC(=O)O)cc2)c1C (stereo not shown) [AZ839] | hTLR4-HEK AUC [7]: 6.00; mTLR4-HEK AUC [8]: 0.93
0.0123 µM | 4.3 | O=C(O)Cc1ccc(C(C(=O)NC2CCCC2)N(C(=O)c2cc(-c3ccccc3)n(-c3ccccc3)n2)c2ccc(Cc3ccccc3)cc2)cc1 (stereo not shown) [AZ897] | –

From publication PMC5063506, “A Novel Class of Small Molecule Agonists with Preference for Human over Mouse TLR4 Activation” (PLoS ONE, 2016)
